Experimental data reported in the NIST ThermoML archive (doi:10.1021/je700339f).

Assay: xn = mol fraction of the nth substance listed
Details: 298.15 K, Liquid

ClCCCl [1,2-dichloroethane] + CN(C)C=O
mass density [kg/m3]
Details	x2 = 0.0805	x2 = 0.1978	x2 = 0.302	x2 = 0.397	x2 = 0.4988	x2 = 0.6023	x2 = 0.7054	x2 = 0.8005	x2 = 0.9071
100 kPa	1221.2	1186.2	1154.9	1126.5	1095.7	1064.5	1033.6	1005.2	972.8
500 kPa	1221.5	1186.6	1155.2	1126.8	1096	1064.8	1033.9	1005.5	973.1
1000 kPa	1222	1187	1155.7	1127.2	1096.4	1062.2	1034.3	1005.8	973.3
1500 kPa	1222.5	1187.5	1156.2	1127.6	1096.8	1065.6	1034.7	1006.2	973.7
2000 kPa	1223	1188	1156.6	1128	1097.2	1065.9	1035	1006.5	974
2500 kPa	1223.4	1188.4	1156.9	1128.4	1097.6	1066.4	1035.4	1006.9	974.3
3000 kPa	1223.9	1188.8	1157.4	1128.8	1098	1066.7	1035.7	1007.2	974.6
3500 kPa	1224.3	1189.3	1157.8	1129.3	1098.3	1067	1036.1	1007.6	974.9
4000 kPa	1224.8	1189.7	1158.2	1129.6	1098.7	1067.4	1036.4	1007.9	975.2
4500 kPa	1225.3	1190.1	1158.6	1130.1	1099.2	1067.8	1036.7	1008.2	975.5
5000 kPa	1225.8	1190.6	–	–	–	–	–	–	–
